For the first assay, the system named is human CTPS1 versus CTPS2. The experiment in a line: Human CTPS1 versus CTPS2 selectivity assessment by RapidFire/MS analysis. The format is biochemical. Conditions: Table 26; RapidFire/MS IC50 ratio. The protocol: Human CTPS1 versus CTPS2 Selectivity Assessment by RapidFire/MS Analysis.
The enzyme inhibitory activities against each target isoform of interest may be determined for the compounds of the invention using an optimised RapidFire high-throughput mass spectrometry (RF/MS) assay format. RF/MS assays for both human CTPS1 and CTPS2 may be performed in assay buffer consisting of 50 mM HEPES (Merck), 20 mM MgCl2, 5 mM KCl, 1 mM DTT, 0.01% Tween-20, pH to 8.0 accordingly. Human full-length active C-terminal FLAG-His-tag CTPS1 (UniProtKB—P17812, CTPS[1-591]-[…]) may be obtained from Proteros biostructures GmbH. Human full length active C-terminal FLAG-His-Avi tagged CTPS2 (UniProtKB-Q9NRF8, CTPS2 [1-586]-[…]) may be obtained from Harker Bio.
Human CTPS (1 or 2) protein may be prepared in 1× assay buffer to the final working protein concentration required for the reaction. A 2 uL volume per well of 2×CTPS (1 or 2) protein may be mixed with 40 nL of compound using acoustic (ECHO) delivery and incubated for 10 minutes at 25° C. Each isoform enzymatic reaction may be subsequently initiated by addition of 2 uL per well of a 2× substrate mix in assay buffer. For hCTPS1: ATP (0.3 mM), UTP (0.2 mM), GTP (0.07 mM) and L-glutamine (0.1 mM). For hCTPS2: ATP (0.1 mM), UTP (0.04 mM), GTP (0.03 mM) and L-glutamine (0.1 mM). Each mixture may be incubated for an appropriate amount of time per isoform within the determined linear phase of the reaction at 25′C. A 60 uL volume of stop solution (1% formic acid with 0.5 uM ^13C9-^15N3-CTP in H2O) may be added and the plate immediately heat-sealed and centrifuged for 10 minutes at 4,000 rpm. Following centrifugation, plates may be loaded onto the Agilent RapidFire microfluidic solid phase extraction system coupled to an API4000 triple quadrupole mass spectrometer (RF/MS) for analysis.
In all cases, the enzyme converts UTP to CTP. Highly specific and sensitive multiple reaction monitoring (MRM) MS methods may be optimised for the detection of the enzymatic reaction product, CTP, and the stable isotope labelled product standard ^13C9-^15N3-CTP. Readout for data analysis may be calculated as the ratio between the peak area of the product CTP and the internal standard ^13C9-^15N3-CTP. For data reporting, the following equation may be used: […]
For each screening plate, the means of the negative (DMSO) and positive control values were used for the calculation of the respective assay window (S/B) and Z′ values. The median of the respective control values was used for calculation of percent inhibition according to the following equation: […]
Percentage inhibition was then plotted against compound concentration, and the 50% inhibitory concentration (IC50) was determined from the resultant concentration-response curve.
Fold selectivity between CTPS1 and CTPS2 was subsequently calculated according to the following equation: […]
Turning to `CCC(C(=O)Nc1ccc(-c2cncc(OC)n2)cc1F)c1ccnc(NS(=O)(=O)C2CC2)n1` (stereo not shown) [Example P95], the “Selectivity (fold selectivity between CTPS1 and CTPS2)” value is “+ (2-30 fold (+))”.
Consider `CCOc1cncc(-c2ccc(NC(=O)C(CC)c3ccnc(NS(=O)(=O)C4CC4)n3)c(F)c2)n1` (stereo not shown) [Example P96], for which the “Selectivity (fold selectivity between CTPS1 and CTPS2)” value was “+ (2-30 fold (+))”.
Consider `CCC(C(=O)Nc1ccc(-c2cncc(OCC(F)(F)F)n2)cc1F)c1ccnc(NS(=O)(=O)C2CC2)n1` (stereo not shown) [Example P98], for which the “Selectivity (fold selectivity between CTPS1 and CTPS2)” value was “+++ (>60 fold (+++))”.
In the case of `CCC(C(=O)Nc1ccc(-c2cncc(C(F)(F)F)n2)cc1)c1ccnc(NS(=O)(=O)C2CC2)n1` (stereo not shown) [Example P103], the “Selectivity (fold selectivity between CTPS1 and CTPS2)” value is “+ (2-30 fold (+))”.
On to `CCOc1cncc(-c2ccc(NC(=O)C(CC)c3ccnc(NS(=O)(=O)C4CC4)n3)cc2)n1` (stereo not shown) [Example P105, 2-(2-(Cyclopropanesulfonamido)pyrimidin-4-yl)-N-(4-(6-ethoxypyrazin-2-yl)phenyl)butanamide], for which the “Selectivity (fold selectivity between CTPS1 and CTPS2)” value is “++ (>30-60 fold (++))”.
Still for that read-out and setting: the entry for `CCC(C(=O)Nc1ccc(-c2cncc(OCC(F)(F)F)n2)cc1)c1ccnc(NS(=O)(=O)C2CC2)n1` (stereo not shown) [Example P108] is “+++ (>60 fold (+++))”.
On to `CCOc1cncc(-c2ccc(NC(=O)C(CCOC)c3ccnc(NS(=O)(=O)C4CC4)n3)cc2)n1` (stereo not shown) [Example P110], for which the “Selectivity (fold selectivity between CTPS1 and CTPS2)” value is recorded as “++ (>30-60 fold (++))”.
Still for that read-out and setting: the entry for `CCOc1cncc(-c2ccc(NC(=O)C3(c4ccnc(NS(=O)(=O)C5CC5)n4)CCOCC3)nc2)n1` [Example P115, 4-(2-(Cyclopropanesulfonamido)pyrimidin-4-yl)-N-(5-(6-ethoxypyrazin-2-yl)pyridin-2-yl)tetrahydro-2H-pyran-4-carboxamide] is “+++ (>60 fold (+++))”; for `CCOc1cncc(-c2ccc(C(=O)NCc3ccnc(NS(=O)(=O)C4CC4)n3)cc2)n1` [Example P118] it is “+++ (>60 fold (+++))”.
Regarding `CC(C)(C(=O)Nc1ccc(-c2cncc(C3CC3)n2)cn1)c1ccnc(NS(=O)(=O)C2CC2)n1` [Example P125], the “Selectivity (fold selectivity between CTPS1 and CTPS2)” value is listed as “++ (>30-60 fold (++))”.
As for `CC(C)(C(=O)Nc1ccc(-c2cncc(C3CC3)n2)cc1F)c1ccnc(NS(=O)(=O)C2CC2)n1` [Example P128], the “Selectivity (fold selectivity between CTPS1 and CTPS2)” value was “+ (2-30 fold (+))”.
In the case of `CC(C)c1cncc(-c2ccc(NC(=O)C(C)(C)c3ccnc(NS(=O)(=O)C4CC4)n3)cc2)n1` [Example P132], the “Selectivity (fold selectivity between CTPS1 and CTPS2)” value was “++ (>30-60 fold (++))”.
Regarding `CCOc1cncc(-c2ccc(NC(=O)C3(c4ccnc(NS(=O)(=O)C5CC5)n4)CCCC3)nc2)n1` [Example P136], the “Selectivity (fold selectivity between CTPS1 and CTPS2)” value is reported as “+++ (>60 fold (+++))”.
Same read-out and setting: the entry for `CCOc1cncc(-c2ccc(NC(=O)C3(c4ccnc(NS(=O)(=O)C5CC5)n4)CCOCC3)c(F)c2)n1` [Example P143] is “+++ (>60 fold (+++))”.
Turning to `CCOc1cncc(-c2ccc(NC(=O)C(CCOC)c3ccnc(NS(=O)(=O)C4CC4)n3)nc2)n1` (stereo not shown) [Example P145], the “Selectivity (fold selectivity between CTPS1 and CTPS2)” value is recorded as “+++ (>60 fold (+++))”.
Same read-out and setting: the entry for `CCOc1cncc(-c2ccc(NC(=O)C(CCOC)c3ccnc(NS(=O)(=O)C4CC4)n3)c(F)c2)n1` (stereo not shown) [Example P146] is “+++ (>60 fold (+++))”; for `CCOc1cncc(-c2ccc(NC(=O)C(F)(CC)c3ccnc(NS(C)(=O)=O)n3)nc2)n1` (stereo not shown) [Example P151] it is “+++ (>60 fold (+++))”.
Still for that read-out and setting: the entry for `CCOc1cncc(-c2cnc(NC(=O)C(CC)c3ccnc(NS(=O)(=O)C4CC4)n3)c(C)c2)n1` (stereo not shown) [Example P155] is “+ (2-30 fold (+))”; for `CCC(C(=O)Nc1ncc(-c2cncc(OC)n2)cc1F)c1ccnc(NS(=O)(=O)C2CC2)n1` (stereo not shown) [Example P158] it is “+ (2-30 fold (+))”.
As to `CCC(C(=O)Nc1ccc(-c2cncc(OC)n2)cn1)c1ccnc(NS(=O)(=O)C2CC2)n1` (stereo not shown) [Example P159], the “Selectivity (fold selectivity between CTPS1 and CTPS2)” value is given as “+++ (>60 fold (+++))”.
Regarding `CCOc1cncc(-c2ccc(NC(=O)C(CC)c3ccnc(NS(=O)(=O)C4CC4)n3)c(C)c2)n1` (stereo not shown) [Example P161], the “Selectivity (fold selectivity between CTPS1 and CTPS2)” value is “+ (2-30 fold (+))”.
As for `CCOc1cncc(-c2cnc(NC(=O)C(CC)c3ccnc(NS(=O)(=O)C4CC4)n3)c(F)c2)n1` (stereo not shown) [Example P162], the “Selectivity (fold selectivity between CTPS1 and CTPS2)” value was “++ (>30-60 fold (++))”.
As to `CCOc1cncc(-c2ccc(NC(=O)C(C)(CC)c3ccnc(NS(=O)(=O)C4CC4)n3)nc2)n1` (stereo not shown) [Example P163], the “Selectivity (fold selectivity between CTPS1 and CTPS2)” value was “+++ (>60 fold (+++))”.
Turning to `CCOc1cncc(-c2ccc(NC(=O)C(OC)c3ccnc(NS(=O)(=O)C4CC4)n3)cc2)n1` (stereo not shown) [Example P164], the “Selectivity (fold selectivity between CTPS1 and CTPS2)” value is given as “+ (2-30 fold (+))”.
Take `CCOc1cncc(-c2ccc(NC(=O)C(CC)c3cccc(NS(=O)(=O)C4CC4)n3)nc2)n1` (stereo not shown) [Example P188]: the “Selectivity (fold selectivity between CTPS1 and CTPS2)” value was “++ (>30-60 fold (++))”.
`CCOc1cncc(-c2ccc(NC(=O)C(CC)c3cccc(NS(=O)(=O)C4CC4)n3)cc2)n1` (stereo not shown) [Example P191]: the “Selectivity (fold selectivity between CTPS1 and CTPS2)” value is on record as “++ (>30-60 fold (++))”.
With `CCOc1cncc(-c2ccc(NC(=O)C(C)(C)c3cncc(NS(=O)(=O)C4CC4)n3)nc2)n1` [Example P195], the “Selectivity (fold selectivity between CTPS1 and CTPS2)” value is “+++ (>60 fold (+++))”.
Turning to `CCOc1cncc(-c2ccc(NC(=O)C(C)(C)c3cncc(NS(=O)(=O)C4CC4)n3)cc2)n1` [Example P196], the “Selectivity (fold selectivity between CTPS1 and CTPS2)” value is reported as “+++ (>60 fold (+++))”.
As to `CCOc1cncc(-c2ccc(NC(=O)C3(c4cncc(NS(=O)(=O)C5CC5)n4)CCOCC3)nc2)n1` [Example P197], the “Selectivity (fold selectivity between CTPS1 and CTPS2)” value is “+++ (>60 fold (+++))”.
Consider `CCOc1cncc(-c2ccc(NC(=O)C(C)(CCOC)c3cncc(NS(=O)(=O)C4CC4)n3)nc2)n1` (stereo not shown) [Example P198], for which the “Selectivity (fold selectivity between CTPS1 and CTPS2)” value is on record as “+++ (>60 fold (+++))”.
On to `CCOc1cncc(-c2ccc(NC(=O)C(F)(CC)c3cncc(NS(=O)(=O)C4CC4)n3)nc2)n1` (stereo not shown) [Example P200], for which the “Selectivity (fold selectivity between CTPS1 and CTPS2)” value is recorded as “++ (>30-60 fold (++))”.
Regarding `CCOc1cncc(-c2ccc(NC(=O)C(CC)c3cncc(NS(=O)(=O)C4CC4)n3)nc2)n1` (stereo not shown) [Example P201], the “Selectivity (fold selectivity between CTPS1 and CTPS2)” value is on record as “+++ (>60 fold (+++))”.
With `CCOc1cncc(-c2ccc(NC(=O)C(CC)c3cncc(NS(=O)(=O)C4CC4)n3)cc2)n1` (stereo not shown) [Example P202], the “Selectivity (fold selectivity between CTPS1 and CTPS2)” value is “+++ (>60 fold (+++))”.
Take `CCOc1cncc(-c2ccc(NC(=O)C(C)(OC)c3cncc(NS(=O)(=O)C4CC4)n3)nc2)n1` (stereo not shown) [Example P205a]: the “Selectivity (fold selectivity between CTPS1 and CTPS2)” value is recorded as “+++ (>60 fold (+++))”.
With `CCOc1cncc(-c2ccc(NC(=O)C(C)(OC)c3cncc(NS(=O)(=O)C4CC4)n3)nc2)n1` (stereo not shown) [Example P205b], the “Selectivity (fold selectivity between CTPS1 and CTPS2)” value is given as “++ (>30-60 fold (++))”.
In the case of `CCOc1cncc(-c2ccc(C(=O)NC(CC)c3ccnc(NS(=O)(=O)C4CC4)n3)c(F)c2)n1` (stereo not shown) [Example P216], the “Selectivity (fold selectivity between CTPS1 and CTPS2)” value is listed as “+++ (>60 fold (+++))”.
On the same count and under the same terms, with `CC(C)Oc1cncc(-c2ccc(C(=O)NC(C)(C)c3cncc(NS(=O)(=O)C4CC4)n3)c(F)c2)n1` [Example P221] the entry was “+ (2-30 fold (+))”.
Same read-out and setting: with `CC(C)(NC(=O)c1ccc(-c2cncc(C(F)(F)F)n2)cc1)c1cncc(NS(=O)(=O)C2CC2)n1` [Example P222] the entry was “+ (2-30 fold (+))”.

Still in this assay, the particulars now being: Table 27; RapidFire/MS IC50 ratio.
On to `CCOc1cncc(-c2ccc(NC(=O)C3(c4ccnc(NS(=O)(=O)C5CC5)n4)CCC(=O)CC3)nc2)n1` [Example P226, 1-(2-(Cyclopropanesulfonamido)pyrimidin-4-yl)-N-(5-(6-ethoxypyrazin-2-yl)pyridin-2-yl)-4-oxocyclohexanecarboxamide], for which the “Selectivity (fold selectivity between CTPS1 and CTPS2)” value is given as “+++ (>60 fold (+++))”.
For the compound `CCOc1cncc(-c2ccc(NC(=O)C3(c4ccnc(NS(=O)(=O)C5CC5)n4)CCC(F)(F)CC3)nc2)n1` [Example P242], the “Selectivity (fold selectivity between CTPS1 and CTPS2)” value is on record as “+++ (>60 fold (+++))”.

These data come from patent US20230020663A1, “SULFONAMIDE INHIBITORS AS CTPS1 INHIBITORS” (Step Pharma S.A.S., priority 2019, published 2023).
